The values that follow come from PubChem BioAssay (NCI).

Experiment in all cases: NCI-60 cell line screen, 48 h
Assay [1] has as its system HCT-15 colon.
The subject of assay [2] is NCI-H522 lung.
Assay [3] deals with IGROV1 ovarian.
For assay [4], the system named is K-562 leukemia.
Assay [5] deals with CCRF-CEM leukemia.
In assay [6] the test system is NCI-H460 lung.
Assay [7] concerns SK-MEL-2 melanoma.
Assay [8] concerns OVCAR-8 ovarian.
Assay [9] deals with TK-10 renal.
In assay [10] the test system is UACC-62 melanoma.
Assay [11] deals with SF-295 CNS.
Assay [12] deals with SK-MEL-28 melanoma.
For assay [13], the system named is LOX IMVI melanoma.
Assay [14] concerns SN12C renal.
The test system of assay [15] is MOLT-4 leukemia.
The test system of assay [16] is HOP-92 NSCLC.
Assay [17] has as its system MCF7 breast.
Assay [18] concerns A498 renal.
Assay [19] concerns NCI/ADR-RES ovarian.
The test system of assay [20] is MDA-MB-435.

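48-hour exposure; five concentrations; linearly interpolated endpoints. TGI: total growth inhibition.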

With `COc1ccccc1C1C(Cl)C(=O)N1n1cnc2ccccc2c1=O` (stereo not given), the TGI in [1], in assay [2], in [3], in [4], in [5] and in assay [6] was over 100 µM throughout. The TGI in assay [7], in [8], in assay [9], in assay [10], in assay [11] and in assay [12] was over 100 µM throughout. The TGI in assay [13], in [14] and in assay [15] was over 100 µM in each case.

In the case of `COc1ccc(N=C2S/C(=N\C(=Nc3ccccc3)SCc3ccccc3)N(c3ccccc3)C2=Nc2ccc(OC)cc2)cc1`, the TGI in assay [1], in assay [3], in assay [4], in assay [5], in assay [7] and in [16] was over 100 µM in each case. The TGI in assay [8], in [9], in assay [17], in assay [10], in assay [12] and in assay [14] was over 100 µM in each case. Further, the TGI in assay [15] is over 100 µM.

`NC1=NC2=c3ccccc3=C(c3cnccn3)C2(c2cnccn2)c2ccccc21` (stereo not given): the TGI in assay [1], in [2], in assay [3], in [4], in assay [5] and in assay [6] was over 100 µM in each case. Besides, the TGI in assay [7] was over 100 µM; in [16] it was over 100 µM; in assay [8], over 100 µM; in [9] it was over 100 µM; in assay [18], 69.1 µM; in assay [10], over 100 µM. The TGI in assay [11] is over 100 µM; in assay [12], over 100 µM; in assay [13] it was over 100 µM; in [14] it was over 100 µM; in assay [15], 95.8 µM.

For the compound `COC(=O)[C@H](Cc1ccccc1)NC(=O)/C(=C/C(C)C)NC(=O)[C@H](CCSC)NC=O`, the TGI in assay [1], in assay [2], in assay [3], in [4], in assay [5] and in assay [6] was over 100 µM each time. In addition, the TGI in [7], in assay [16], in assay [8], in [9], in assay [18] and in assay [10] was over 100 µM each time. In addition, the TGI in assay [11], in assay [12], in [13], in assay [14] and in assay [15] was over 100 µM throughout.

For the compound `CCN1CCCC(C#N)(c2ccccc2)CC1` (stereo not given), the TGI in assay [1], in assay [3], in assay [4], in assay [6], in assay [19] and in assay [16] was over 100 µM throughout. The TGI in [8], in assay [9], in assay [18], in assay [11], in assay [12] and in assay [15] was over 100 µM in each case.

As to `CCCCCCCCOCC(O)COC(C)C` (stereo not given), the TGI in assay [1] is over 100 µM; in assay [3] it was over 100 µM; in assay [4], 96.6 µM; in assay [5] it was 52.8 µM; in assay [6] it was over 100 µM; in assay [16] it was 81.8 µM. Moreover, the TGI in [8], in assay [9], in [18], in [10], in [11] and in [12] was over 100 µM each time. For the same compound, the TGI in [13] was over 100 µM; in [14] it was 73.1 µM; in assay [15], 45 µM.

With `CC1(C)CC(O)C2=C(O1)C(=O)c1ncccc1C2=O` (stereo not given), the TGI was 12 µM in assay [1]; 3.86 µM in assay [2]; 6.14 µM in assay [3]; 3.3 µM in [20]; over 20.7 µM in assay [5]; 5.89 µM in assay [6]. For the same compound, the TGI stood at 6.74 µM in [7]; 5.44 µM in [16]; 9.34 µM in [8]; 20.1 µM in assay [9]; 18.6 µM in [18]; 5.34 µM in assay [17]. In addition, the TGI in [10] is 3.15 µM; in assay [11] it was 3.35 µM; in assay [12] it was 3.16 µM; in assay [13], 3.4 µM; in assay [14], 3.68 µM; in [15] it was 4.55 µM.

With `O=C(C=C1SCCS1)/C=C\c1ccc(Cl)cc1`, the TGI in [2], in assay [3], in assay [4], in assay [5], in [7] and in assay [16] was over 100 µM throughout. For the same compound, the TGI in assay [8], in [9], in assay [18], in assay [10], in assay [11] and in assay [12] was over 100 µM in each case. The TGI in assay [13], in assay [14] and in assay [15] was over 100 µM in each case.

For `CC(=O)OC1CC2CCN3C(=O)c4cc5c(cc4[C@H](C1OC(C)=O)C23)OCO5` (stereo not given in full), the TGI in assay [1], in assay [2], in [3], in assay [4], in assay [5] and in [6] was over 100 µM throughout. Besides, the TGI in assay [8], in [9], in assay [10], in [11], in [12] and in assay [13] was over 100 µM throughout. Besides, the TGI in assay [14] and in assay [15] was over 100 µM each time.

`CC(C)(C)c1cc(-c2cc(C(C)(C)C)[nH]n2)n[nH]1`: the TGI in [1], in assay [2], in assay [3], in assay [4], in assay [20] and in assay [5] was over 100 µM each time. Moreover, the TGI in assay [6], in assay [7], in assay [16], in assay [9], in assay [18] and in assay [17] was over 100 µM each time. Besides, the TGI in assay [10], in assay [11], in [12], in [13], in assay [14] and in assay [15] was over 100 µM throughout.

As to `CCCC(=O)Nc1cc(/C=C/C(=O)N2CC(CCl)c3c2cc(OCc2ccccc2)c2[nH]cc(C)c32)n(C)c1` (stereo not given), the TGI is 0.93 µM in [1]; 0.0267 µM in assay [2]; over 25 µM in assay [3]; 0.904 µM in [4]; 0.918 µM in [20]; 0.244 µM in assay [5]. Moreover, the TGI in assay [6] came out at 0.0588 µM; in assay [7], 0.218 µM; in assay [19], 0.182 µM; in assay [16] it was 0.213 µM; in assay [8], 0.202 µM; in assay [9] it was 2.47 µM. Further, the TGI was 1.14 µM in [18]; 0.0934 µM in assay [10]; 0.334 µM in [11]; 1.54 µM in [12]; 6.71 µM in assay [13]; over 25 µM in [14]. In [15], the TGI is 0.61 µM.

As to `COc1ccc(NC(=S)N/N=C\c2ccc(NC(C)=O)cc2)cc1`, the TGI in assay [2], in [3], in [20], in assay [5], in assay [6] and in assay [7] was over 100 µM in each case. Besides, the TGI in assay [16], in [9], in assay [10], in assay [11], in assay [12] and in assay [13] was over 100 µM in each case. The TGI in assay [14] and in [15] was over 100 µM in each case.

Consider `CCN(CC)Cc1cc(Nc2c3ccccc3nc3c2[nH]c2ccccc23)cc(CN(CC)CC)c1O`, for which the TGI in [1] was 3.4 µM; in assay [2], 2.47 µM; in assay [3], 3.29 µM; in assay [4], over 100 µM; in [20], 2.04 µM; in assay [6] it was 2.01 µM. Besides, the TGI in assay [7] is 3.24 µM; in assay [16], 3.86 µM; in assay [8], 2.89 µM; in [9] it was 11.7 µM; in assay [18], 2.89 µM; in assay [17] it was 9.07 µM. Also, the TGI in assay [10] was found to be 3.02 µM; in assay [11], 2.88 µM; in assay [12], 5.3 µM; in assay [14] it was 2.18 µM.

For the compound `N#C[C@H](C(=O)c1ccccc1F)c1nc2ccccc2s1`, the TGI in assay [1] is over 100 µM; in assay [2], 69.3 µM; in assay [3], over 100 µM; in assay [4], over 100 µM; in assay [20], over 100 µM; in assay [5], 73.9 µM. Further, the TGI is 94.2 µM in [6]; 51.1 µM in [7]; over 100 µM in assay [19]; over 100 µM in [16]; over 100 µM in assay [8]; over 100 µM in [9]. Besides, the TGI in assay [18] is over 100 µM; in assay [10] it was over 100 µM; in assay [11], 77.2 µM; in [12], over 100 µM; in [13] it was over 100 µM; in assay [14] it was over 100 µM. Besides, the TGI in [15] was 96.1 µM.

Regarding `CC(=O)OCC(C)C1=C(OC(C)=O)C(=O)C2(C)C/C=C(/C)CC/C=C(\C)CCC(OC(C)=O)C(C)CCC12` (stereo not given), the TGI was 34 µM in assay [1]; 48.3 µM in assay [3]; 33.4 µM in assay [4]; 38.2 µM in [20]; 40.9 µM in [5]; 10.8 µM in [6]. The TGI turned out to be 30.6 µM in assay [7]; 20.3 µM in assay [16]; 44.9 µM in assay [8]; 39 µM in assay [9]; 38.2 µM in assay [17]; 28 µM in assay [10]. The TGI in [11] was 31.3 µM; in assay [12], 33.8 µM; in assay [13] it was 35 µM; in assay [14], 36.5 µM; in assay [15], 27.9 µM.

Turning to `Cc1ccc(/C=N/n2c(Cc3ccccc3)n[nH]c2=O)cc1`, the TGI in [1], in [2], in [3], in assay [4], in [5] and in [6] was over 100 µM in each case. In addition, the TGI in assay [19] is over 100 µM; in [16], 83.4 µM; in assay [8], over 100 µM; in assay [9], over 100 µM; in assay [18] it was over 100 µM; in assay [11], over 100 µM. The TGI in assay [12], in [13], in assay [14] and in assay [15] was over 100 µM throughout.

On to `CC(C)(C)OC(=O)N[C@H]1CC(O)c2ccccc2N(CC(=O)O)C1=O` (stereo not given in full), for which the TGI in [1], in [2], in [3], in assay [5], in assay [6] and in assay [7] was over 100 µM in each case. Moreover, the TGI in assay [16], in [8], in [9], in assay [10], in [11] and in assay [12] was over 100 µM in each case. Moreover, the TGI in [13], in [14] and in assay [15] was over 100 µM in each case.
